Source: patent US7498300B2, “CRFR1 selective ligands” (The Salk Institute for Biological Studies, priority 2001, dated 2009)

How the values were obtained:
[1] = test system: cultured rat pituitary cells; assay: In vitro stimulation of ACTH and β-endorphin secretion by cultured rat pituitary cells; type: cell-based
Procedure: (§1) In vivo testing is carried out using the general procedure set forth in C.

human CRFR2 = molecular target: T1, human CRFR2 (Homo sapiens, UniProt Q13324); assay: Competitive binding assay, CHO cells stably expressing human CRFR2, displacement of [125I-Tyr0]Ucn
T1 construct: expressed in transfected cells
T1 sequence (Q13324 1-411): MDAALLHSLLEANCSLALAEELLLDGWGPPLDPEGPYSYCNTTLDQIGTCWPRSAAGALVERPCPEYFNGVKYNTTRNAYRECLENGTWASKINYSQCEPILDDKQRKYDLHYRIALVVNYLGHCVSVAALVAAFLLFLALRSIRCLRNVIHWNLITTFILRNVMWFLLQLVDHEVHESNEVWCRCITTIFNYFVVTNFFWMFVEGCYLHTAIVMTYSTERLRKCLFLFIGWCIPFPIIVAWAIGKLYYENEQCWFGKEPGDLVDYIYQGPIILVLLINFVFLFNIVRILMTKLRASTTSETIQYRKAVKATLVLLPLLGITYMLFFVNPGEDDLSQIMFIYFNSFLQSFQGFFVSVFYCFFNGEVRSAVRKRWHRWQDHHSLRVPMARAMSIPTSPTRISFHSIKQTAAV
Procedure: The affinities of test peptides for CRFR1 and CRFR2 stably expressed in CHO cells were determined by competitive displacement of ^125I-(Nle^21, Tyr^32) ovine CRF (for CRFR1) or of [^125I-Tyr^o-]Ucn (for CRFR2) as described.

human CRFR1 = molecular target: T2, human CRFR1 (Homo sapiens, UniProt P34998); assay: Competitive binding assay, CHO cells stably expressing human CRFR1, displacement of 125I-(Nle21,Tyr32) ovine CRF
T2 construct: expressed in transfected cells
T2 sequence (P34998 24-415): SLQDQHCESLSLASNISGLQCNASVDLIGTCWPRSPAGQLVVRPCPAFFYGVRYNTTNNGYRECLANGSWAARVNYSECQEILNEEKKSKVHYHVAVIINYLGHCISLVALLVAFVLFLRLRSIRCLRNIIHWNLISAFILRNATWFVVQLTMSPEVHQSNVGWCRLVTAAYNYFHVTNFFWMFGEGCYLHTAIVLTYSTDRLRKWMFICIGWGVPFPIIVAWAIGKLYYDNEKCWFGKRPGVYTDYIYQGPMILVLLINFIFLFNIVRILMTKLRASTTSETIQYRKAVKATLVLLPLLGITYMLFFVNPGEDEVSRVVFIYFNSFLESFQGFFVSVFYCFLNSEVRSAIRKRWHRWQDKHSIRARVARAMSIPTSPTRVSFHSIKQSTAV
Procedure: Binding affinity is a term used to refer to the strength of interaction between ligand and receptor. […] Ki (inhibitory binding affinity constant) is determined using a “standard” or “tracer” radioactive ligand and thus measures the displacement of the tracer from the receptor or binding protein; it is most properly expressed with reference to such tracer. However, so long as these assays are carefully performed under specific conditions with relatively low concentrations of receptor or the like, the calculated Ki will be substantially the same as its dissociation constant KD. […] It is particularly efficient to test for Ki because only a single tracer need be labelled, e.g. radioiodinated.
Binding assays with cells expressing human CRFR1 are carried out as described in the Chen et al. P.N.A.S., supra. The affinities of test peptides for CRFR1 and CRFR2 stably expressed in CHO cells were determined by competitive displacement of ^125I-(Nle^21, Tyr^32) ovine CRF (for CRFR1) or of [^125I-Tyr^o-]Ucn (for CRFR2) as described.

[2] = In vivo lowering of blood pressure on peripheral administration; details: administered peripherally
Procedure: as §1

Row | Substance | stimulation of the secretion of ACTH and β-END-LI [1] | binding to CRFR2 (in words) (human CRFR2) | binding to CRFR1 (in words) (human CRFR1) | lowering of blood pressure [2]
1 | (cyclo 31-34)[Ac-Pro^4, CML^19, Nle^21,38, Glu^31, Lys^34]-r/hCRF(4-41) [Example 5 B] | stimulates | only very weakly | binds strongly | very significant lowering of blood pressure
2 | (cyclo 31-34)[Ac-Pro^4, D-Phe^12, Nle^21,38, Glu^31, Aib^33, Lys^34]-r/hCRF(4-41) [Example 4] | strongly stimulates | only very weaker | bind strongly | very significant lowering of blood pressure
3 | (cyclo 31-34)[Ac-Pro^4, D-Phe^12, Nle^14,18,24, Glu^31, Lys^34]-flounder urotensin(4-41) [Example 3 G] | stimulates | only very weakly | binds strongly | very significant lowering of blood pressure
4 | (cyclo 31-34)[Ac-Pro^4, D-Phe^12, CML^18,27, Nle^21,38, Glu^31, Lys^34]-r/hCRF(4-41) [Example 6 B] | stimulates | only very weakly | binds strongly | very significant lowering of blood pressure
5 | (cyclo 31-34)[Ac-Pro^4, D-Phe^12, Nle^18,21, Glu^31, Lys^34]-carp urotensin(4-41) [Example 3 F] | stimulates | only very weakly | binds strongly | very significant lowering of blood pressure
6 | (cyclo 31-34)[Ac-Pro^4, D-Phe^12, Nle^21,38, CML^27,40, Glu^31, Aib^33, Lys^34]-r/hCRF(4-41) [Example 6 G] | stimulates | bind only weakly | high affinity | very significant lowering of blood pressure
7 | (cyclo 31-34)[Ac-Pro^4, D-Phe^12, Nle^18,21, Glu^31, Lys^34]-AHC(4-41) [Example 3 A] | strongly stimulates | only very weakly | bind strongly | very significant lowering of blood pressure
8 | (cyclo 31-34)[Ac-Pro^4, D-Phe^12, Nle^21,38, CML^27,40, Glu^31, D-Ala^33, Lys^34]-r/hCRF(4-41) [Example 6 I] | stimulates | bind only weakly | high affinity | very significant lowering of blood pressure
9 | (cyclo 31-34)[Ac-Pro^4, D-Phe^12, CML^14, Nle^21,38, Glu^31, Lys^34]-r/hCRF(4-41) [Example 5 A] | stimulates | only very weakly | binds strongly | very significant lowering of blood pressure
10 | (cyclo 31-34)[Ac-Pro^4, D-Phe^12, Nle^21,38, Glu^31, Lys^34]-porcine CRF(4-41) [Example 3 C] | stimulates | only very weakly | binds strongly | very significant lowering of blood pressure
11 | (cyclo 31-34)[Ac-Pro^4, D-Phe^12, CML^15, Nle^21,38, Glu^31, Lys^34]-r/hCRF(4-41) [Example 5] | stimulates | only very weakly | binds strongly | very significant lowering of blood pressure
12 | (cyclo 31-34)[Ac-Pro^4, D-Phe^12, CML^14,27, Nle^21,38, Glu^31, Lys^34]-r/hCRF(4-41) [Example 6 A] | stimulates | only very weakly | binds strongly | very significant lowering of blood pressure
13 | (cyclo 31-34)[Ac-Pro^4, D-Phe^12, Nle^21,38, Glu^31, Lys^34]-oCRF(4-41) [Example 2] | strongly stimulates | poorly | bind strongly | very significant lowering of blood pressure
14 | (cyclo 31-34)[Ac-Pro^4, D-Phe^12, Nle^21,38, Glu^31, Lys^34, CML^37]-r/hCRF(4-41) [Example 5 D] | stimulates | only very weakly | binds strongly | very significant lowering of blood pressure
15 | (cyclo 31-34)[Ac-Pro^4, D-Phe^12, Nle^21,38, CML^27,37, Glu^31, Lys^34]-r/hCRF(4-41) [Example 6 D] | stimulates | only very weakly | binds strongly | very significant lowering of blood pressure
16 | (cyclo 31-34)[Ac-Pro^4, D-Phe^12, Nle^21,38, CML^27,36, Glu^31, D-His^32, Lys^34]-r/hCRF(4-41) [Example 6 C D-His^32 analog] | stimulates | only very weakly | binds strongly | very significant lowering of blood pressure
17 | (cyclo 31-34)[Ac-Pro^4, D-Phe^12, Nle^21,38, CML^27,40, Glu^31, D-Ser^33, Lys^34]-r/hCRF(4-41) [Example 6 H] | stimulates | bind only weakly | – | very significant lowering of blood pressure
18 | (cyclo 31-34)[Ac-Pro^4, D-Phe^12, Nle^21,38, CML^27,41, Glu^31, Lys^34]-r/hCRF(4-41) [Example 6 F] | stimulates | only very weakly | binds strongly | very significant lowering of blood pressure
19 | (cyclo 31-34)[Ac-Pro^4, D-Phe^12, Nle^14,18,24, Glu^31, Lys^34]-maggy urotensin(4-41) [Example 3 E] | stimulates | only very weakly | binds strongly | very significant lowering of blood pressure
20 | (cyclo 31-34)[Ac-Pro^4, D-Phe^12, Nle^18,21, Glu^31, Lys^34]-sucker urotensin(4-41) [Example 3 B] | stimulates | only very weakly | binds strongly | very significant lowering of blood pressure
21 | (cyclo 31-34)[Ac-Pro^4, D-Phe^12, Nle^21,38, CML^27,40, Glu^31, Lys^34]-r/hCRF(4-41) [Example 6 E] | stimulates | bind only weakly | high affinity | very significant lowering of blood pressure
22 | (cyclo 31-34)[Ac-Pro^4, D-Phe^12, Nle^21,38, CML^27, Glu^31, Lys^34]-r/hCRF(4-41) [Example 5 C] | stimulates | only very weakly | binds strongly | very significant lowering of blood pressure
23 | (cyclo 31-34)[Ac-Pro^4, D-Phe^12, CML^17, Nle^21,38, Glu^31, Lys^34]-r/hCRF(4-41) [Example 5 E] | stimulates | only very weakly | binds strongly | very significant lowering of blood pressure
24 | (cyclo 31-34)[Ac-Pro^4, D-Phe^12, Nle^21,37,38, Glu^31, Lys^34]-fish CRF(4-41) [Example 3 D] | stimulates | only very weakly | binds strongly | very significant lowering of blood pressure
